Key:
[1] = test system: non-obese adult subjects with central abdominal bulging; assay: Phase 2 RESET trial: adverse effects and tolerability; assay type: in vivo, human; settings: for Any Adverse Event Definitely or Possibly Related to Study Drug (incidence): 20 SC injections once a week for 8 weeks
Experimental: (§1) Methods: A randomized, double-blind, placebo-controlled study was conducted to evaluate the safety and efficacy of a composition comprising the long-acting beta-2 receptor agonist salmeterol xinafoate. This study was reviewed and approved by a central IRB (Chesapeake IRB, Columbia, Md.) and written informed consent was received from all study subjects. The study enrolled 513 adult subjects with central abdominal bulging at 31 investigative sites across the U.S. Subjects were required to be non-obese (BMI<30 kg/m^2), have a focal area of central abdominal bulging due to excess subcutaneous fat (˜400 cm^2 area around the umbilicus), have adequate skin elasticity, have at least a rating of “slight bulge, not flat” on both the 5-point Patient- and Clinician-Global Abdominal Perception Scales (P-GAPS and C-GAPS) at Screening and Day 1, and who were at least slightly dissatisfied with their abdominal bulging in the treatment area. The P-GAPS includes the ratings: flat, almost flat, slight bulge/not flat, […].
(§2) Subjects were randomized to receive 1 of 3 doses of salmeterol xinafoate (0.4, 1.0, or 4.0 μg total weekly dose) or placebo (0.9% Sodium Chloride Injection, USP) once a week for 8 weeks starting on Day 1 after all entry criteria had been satisfied. Randomization was based on a computer-generated, site-based randomization schedule, which was distributed to authorized, unblinded personnel at each site. Twenty, 1 mL weekly subcutaneous (SC) injections administered via a ½ inch 30 gauge needle were spaced 4 cm apart on the anterior abdomen between axial planes at +35 mm and −70 mm, relative to the umbilicus. Consistent injection placement was assured by the weekly application of a water-based temporary tattoo defining the location of the 20 administration injection sites. Efficacy endpoints included a Patient- and Clinician-Global Abdominal Perception Scale, a Patient and Clinician Photonumeric Scale (PPnS and CPnS) and duplicate abdominal circumference measurements (taken at +35 mm, 0 and −70 mm, relative to the umbilicus, using a standardized tape measurement (e.g., laser-guided) procedure).
Demographics & Safety Results: Subjects enrolled in the study were primarily female (81%; 418/513), white (86%; 440/513), with a mean age of 38 (18−71) years and a mean BMI of 23.4 (18.2−29.9) kg/m^2. […] Ninety-two percent completed the study per protocol; 6 subjects (1%) were lost to follow-up, 4 subjects (<1%) were terminated for protocol violation, 10 subjects (2%) withdrew consent and 21 subjects (4%) withdrew for miscellaneous causes. […] The most frequently reported treatment-emergent adverse effects related to study drug were mild and transient injection site events, including hematoma, erythema, contusion, and pain. The incidence of these adverse effects is reported in Table 1 (a single incidence (<1%) of an adverse event was reported randomly across organ systems and all treatment groups and is not reported in the table). These injection site events occurred with a similar frequency in subjects in the placebo group and in the salmeterol xinafoate groups and were considered to be related to the typical mechanical trauma of an injection procedure rather than the study drug itself.

[2] = test system: central abdominal bulging due to excess subcutaneous fat; assay: Phase 2 RESET trial: patient and clinician rating scales (P-GAPS, C-GAPS, PPnS, CPnS), composite responders; assay type: in vivo, human; settings: 0.4 μg total weekly dose
Experimental: as §1, §2
A specific set of standardized instructions (e.g., patient positioning, posture, breathing, etc.) were followed for the collection of all ratings and measurements. Designated clinical site personnel were trained in person to perform each procedure; some procedures also included a training video. […] Specific to the laser-guided tape measure procedure, the reproducibility of the procedure beyond what is obtained with a standard manual tape measure was enhanced with the water-based tattoo on the anterior abdomen, a self-tensioning tape measure, a tripod-mounted laser level and electronic data capture to ensure the independent recording of circumferential measurements. […]

[3] = test system: central abdominal bulging due to excess subcutaneous fat; assay: Phase 2 RESET trial: abdominal circumference by laser-guided tape measure, and calculated abdominal volume; assay type: in vivo, human; settings: 0.4 μg total weekly dose
Experimental: as §1, §2
A specific set of standardized instructions (e.g., patient positioning, posture, breathing, etc.) were followed for the collection of all ratings and measurements. Designated clinical site personnel were trained in person to perform each procedure; some procedures also included a training video. […] Specific to the laser-guided tape measure procedure, the reproducibility of the procedure beyond what is obtained with a standard manual tape measure was enhanced with the water-based tattoo on the anterior abdomen, a self-tensioning tape measure, a tripod-mounted laser level and electronic data capture to ensure the independent recording of circumferential measurements. Both the 5-point patient and clinician verbal scales (P-GAPS and C-GAPS) that assigned scores ranging from flat to big (or pronounced) bulge, as well as the 6-point patient and clinician photonumeric scales (PPnS and CPnS) that are a match-to-sample task in which an abdominal profile are selected from a series of 6 identical torsos with a progressively larger anterior abdominal bulge were specifically developed and validated to assess treatment effects in non-obese subjects with central abdominal bulging. Neither patients nor clinicians had access to the others' scale ratings and neither had access to previous scale scores. Final assessments on all outcome measures were performed 1 week after the last injections (Day 57±2 days).
All efficacy analyses used a repeated measures analysis of covariance (ANCOVA) model to determine differences between each active treatment group and placebo. […]

[4] = compared with albuterol, a short-acting hydrophilic beta-adrenergic agonist; cited from earlier work
[5] = subjects weight neutral or lost weight (≦0 kg)

OCc1cc(C(O)CNCCCCCCOCCCCc2ccccc2)ccc1O (stereo not shown) [salmeterol xinafoate]
Injection Site Erythema (incidence) ([1]; 0.4 μg total weekly dose): 2%
Injection Site Hematoma (incidence) ([1]; 0.4 μg total weekly dose): 5%
Injection Site Hemorrhage (incidence) ([1]; 0.4 μg total weekly dose): 0%
Injection Site Pain (incidence) ([1]; 0.4 μg total weekly dose): 3%
Any Adverse Event Definitely or Possibly Related to Study Drug (incidence) ([1]; 0.4 μg total weekly dose): 11%
Injection Site Erythema (incidence) ([1]; 1.0 μg total weekly dose): 2%
Injection Site Hematoma (incidence) ([1]; 1.0 μg total weekly dose): 6%
Injection Site Hemorrhage (incidence) ([1]; 1.0 μg total weekly dose): 0%
Injection Site Pain (incidence) ([1]; 1.0 μg total weekly dose): 2%
Any Adverse Event Definitely or Possibly Related to Study Drug (incidence) ([1]; 1.0 μg total weekly dose): 12%
Injection Site Erythema (incidence) ([1]; 4.0 μg total weekly dose): 0%
Injection Site Hematoma (incidence) ([1]; 4.0 μg total weekly dose): 6%
Injection Site Hemorrhage (incidence) ([1]; 4.0 μg total weekly dose): 0%
Injection Site Pain (incidence) ([1]; 4.0 μg total weekly dose): 2%
Any Adverse Event Definitely or Possibly Related to Study Drug (incidence) ([1]; 4.0 μg total weekly dose): 12%
Tolerability ([1]; 0.4, 1.0 and 4.0 μg total weekly dose, 20 SC injections into abdominal adipose tissue once a week for 8 weeks): well tolerated
Significant adverse events during the study ([1]; all dose groups, 8 weeks): no significant adverse events
Change from baseline across all rating instruments (P-GAPS, C-GAPS, PPnS, CPnS) [2]: consistent mean reductions from baseline
Composite responders (2-point improvement on P-GAPS and 2-point improvement on CPnS) compared to placebo [2]: significantly more responders
% composite responders (1-point improvement on P-GAPS and 2-point improvement on CPnS) ([2]; all subjects): 16%
% composite responders (1-point improvement on P-GAPS and 2-point improvement on CPnS) [2, 5]: 22%
Change in abdominal volume from baseline ([3]; Day 57, all subjects, +35 mm to −70 mm relative to the umbilicus, placebo −90 mL, p=0.001): -192 mL
Mean change in abdominal circumference at the umbilicus from baseline ([3]; Day 57, all subjects, placebo −0.7 cm, p=0.001): −1.6 cm
Mean reduction in abdominal volume relative to placebo ([3]; all subjects): -102 mL
Mean reduction in umbilical circumference relative to placebo ([3]; all subjects): −0.9 cm
Mean reduction in abdominal volume from baseline [3, 5]: -329 mL
Mean reduction in abdominal volume relative to placebo [3, 5]: -175 mL
Mean reduction in umbilical circumference from baseline [3, 5]: −2.7 cm
Mean reduction in umbilical circumference relative to placebo [3, 5]: −1.6 cm
Dose comparison of efficacy across most outcome measures ([3]; lowest dose, 0.02 μg/mL): the most efficacious

OCc1cc(C(O)CNCCCCCCOCCCCc2ccccc2)ccc1O (stereo not shown) [salmeterol]
Lipophilicity relative to albuterol [4]: at least 10,000 times

Reference: US20160089346A1, “METHOD OF TREATMENT FOR BODY CONTOURING” (Neothetics, Inc., priority 2014, published 2016)
